The values below come from US20260133203A1, “DETECTION OF FUMARATE-DERIVED MODIFICATION IN A TEST SAMPLE” (UNIVERSITY OF SOUTH CAROLINA, priority 2017, published 2026).

Molecules are shown by their SMILES. Structures can show the parent of a compound that is named as a salt.

The test system of the experiment is rat primary neurons. Kind of experiment: Western blot detection of succinated proteins with anti-2SC antibody, without ester hydrolysis. The class given is cell-based. Particulars: 100 μM DMF, 24 hours, absence of ester hydrolysis. How it is done:
Primary neurons from newborn rat brain cortices were isolated and cultured using an adaptation of methods described previously. Briefly, postnatal day 1 rats were sacrificed by decapitation, the brains were aseptically dissected, and cortices were separated from the rest of the brain in ice-cold Hibernate®-A medium (Life Technologies) containing 2% (v/v) B-27 supplement (Life Technologies) and 0.5 mM glutamine (Invitrogen™). The tissue was minced in fragments of about 1 mm3 with a scalpel and subjected to digestion with 2 mg/ml papain (Worthington) in the supplemented Hibernate®-A medium for 20 minutes at 30° C. in a shaker incubator set at 100 rpm. After thorough trituration through a fire-polished Pasteur pipette, the tissue was allowed to settle for 5 minutes and the supernatant was carefully layered on top of a discontinuous OptiPrep™ (Sigma-Aldrich™) gradient prepared in Hibernate®-A medium; the layers contained 35, 25, 20 and 15% OptiPrep™. […] After a centrifugation at 500 g for 5 min at room temperature, cells were resuspended in Neurobasal™—A medium containing 0.5 mM glutamine, 2% B-27 supplement, and 5 ng/ml bFGF (Invitrogen™); counted and plated on 24-well plates pretreated with 0.01% poly-L-lysine (Sigma-Aldrich™) at a density of 200,000 cells/well. […] The protein content in the different samples was determined by the Lowry assay. […]

Turning to `COC(=O)/C=C/C(=O)OC` [DMF, dimethyl fumarate], the “detection of succinated proteins using the anti-2SC antibody” value is on record as “only one band ˜50 kDa showing a significant increase in intensity”.
